One may read the Emax as the size of the effect at its maximum, as opposed to the concentration needed. A word on the ED50: it is the dose at which the effect has come halfway, by size or by number of responders.

These results are taken from US10072014B2 (Janssen Pharmaceutica NV, priority 2014, dated 2018).

For experiment [1], the target named is T1, human mGlu2 receptor (Homo sapiens, UniProt Q14416).
T1 construct: expressed in transfected cells; host or cells: CHO cells
In words: [35S]GTPγS binding assay, negative allosteric modulation of mGluR2. It counts as biochemical. The source says:
The compounds provided in the present invention are negative allosteric modulators of mGluR2. These compounds appear to inhibit glutamate responses by binding to an allosteric site other than the glutamate binding site. The response of mGluR2 to a concentration of glutamate is decreased when compounds of Formula (I) are present. Compounds of Formula (I) are expected to have their effect substantially at mGluR2 by virtue of their ability to reduce the function of the receptor. The effects of negative allosteric modulators tested at mGluR2 using the [^35S]GTPγS binding assay method described below and which is suitable for the identification of such compounds, and more particularly the compounds according to Formula (I), are shown in Table 7.
1) [^35S]GTPγS Binding Assay
The [^35S]GTPγS binding assay is a functional membrane-based assay used to study G-protein coupled receptor (GPCR) function whereby incorporation of a non-hydrolysable form of GTP, [^35S]GTPγS (guanosine 5′-triphosphate, labelled with […] ^35S), is measured. The G-protein a subunit catalyzes the exchange of guanosine 5′-diphosphate (GDP) by guanosine triphosphate (GTP) and on activation of the GPCR by an agonist, [^35S]GTPγS, becomes incorporated and cannot be cleaved to continue the exchange cycle (Harper (1998) Current Protocols in Pharmacology 2.6.1-10, John Wiley & Sons, Inc.). […] Here we describe the use of the [^35S]GTPγS binding assay using membranes from cells transfected with the human mGlu2 receptor and adapted from Schaffhauser et al. (Molecular Pharmacology, 2003, […]) for the detection of the negative allosteric modulation (NAM) properties of the compounds of this invention.
CHO-cells were cultured to pre-confluence and stimulated with 5 mM butyrate for 24 h. Cells were then collected by scraping in PBS and cell suspension was centrifuged (10 min at 4000 RPM in benchtop centrifuge). Supernatant was discarded and pellet gently resuspended in 50 mM Tris-HCl, pH 7.4 by mixing with an Ultra Turrax homogenizer. The suspension was centrifuged at 12,400 RPM (Sorvall F14S-6x250Y) for 10 minutes and the supernatant discarded. The pellet was homogenized in 5 mM Tris-HCl, pH 7.4 using an Ultra Turrax homogenizer and centrifuged again (13,000 RPM, 20 min, 4° C.). The final pellet was resuspended in 50 mM Tris-HCl, pH 7.4 and stored at −80° C. in appropriate aliquots before use. Protein concentration was determined by the Bradford method (Bio-Rad, USA) with bovine serum albumin as standard.
[^35S]GTPγS Binding Assay
Measurement of mGluR2 negative allosteric modulatory activity of test compounds was performed as follows. Test compounds and glutamate were diluted in assay buffer containing 10 mM HEPES acid, 10 mM HEPES salt, pH 7.4, 100 mM NaCl, 3 mM MgCl2 and 10 μM GDP. Human mGlu2 receptor-containing membranes were thawed on ice and diluted in assay buffer supplemented with 18 μg/ml saponin. Membranes were pre-incubated with compound together with a predefined (˜EC80) concentration of glutamate (60 μM) for 30 min at 30° C. After addition of [^35S]GTPγS (f.c. 0.1 nM), assay mixtures were shaken briefly and further incubated to allow [^35S]GTPγS incorporation on activation (30 minutes, 30° C.). Final assay mixtures contained 7 μg of membrane protein in 10 mM HEPES acid, 10 mM HEPES salt, pH 7.4, 100 mM NaCl, 3 mM MgCl2, 10 μM GDP and 10 μg/ml saponin. Total reaction volume was 200 μl. Reactions were terminated by rapid filtration through Unifilter-96 GF/B plates (Perkin Elmer, Massachusetts, USA) using a 96-well filtermate universal harvester. Filters were washed 6 times with ice-cold 10 mM NaH2PO4/10 mM Na2HPO4, pH 7.4. Filters were then air-dried, and 30 μl of liquid scintillation cocktail (Microscint-O) was added to each well. Membrane-bound radioactivity was counted in a Topcount.
The concentration-response curves of representative compounds of the present invention were generated using the Lexis software interface (developed at J&J). […]
Background: GTPγS resists hydrolysis and so accumulates on activated G proteins.

Experiment [2] deals with rats. In words: Reversal of the effect of the mGluR2 PAM JNJ-42153605-induced inhibition of scopolamine-induced hyperlocomotion. Format: in vivo. Particulars: Rattus norvegicus, PO. The method, then: 2) Reversal of the Effect of the mGluR2 PAM JNJ-42153605-induced Inhibition of Scopolamine-induced Hyperlocomotion Apparatus
Motor activity was measured in microprocessor-based motor activity arenas (closed gray PVC cylinders with a height of 39 cm and a diameter of 31 cm). Each arena was placed on an infrared LED (8×8 LEDs) lit box (white PVC squared box; 40×40 cm^2; height 12.5 cm. An infrared-sensitive tube camera and a white light source were mounted to the ceiling above the observation chamber to track the animal. The total distance traveled (cm) was recorded and analyzed using the Noldus Ethovision XT Video Tracking System (Version 7.0.418; Noldus, Wageningen, The Netherlands). The intensity of the light within the activity cages (measured in the centre at the level of the floor) ranged between 4 and 8 LUX.
The rats were pretreated with test compound or vehicle at 60 min before the start of the activity recordings and placed into individual cages. The rats were challenged with JNJ-42153605 (3-(cyclopropylmethyl)-7-(4-phenylpiperidin-1-yl)-8-(trifluoromethyl)-[1,2,4]triazolo[4,3-a]pyridine; WO2010/130424; Cid et al. J. Med. Chem. 2012, 55, 8770-8789) (20 mg/kg, i.v.) 30 min before the start of the activity recording combined with scopolamine (0.16 mg/kg, i.v.) just before the start of the activity measurements. Immediately after the injection of scopolamine, the rats were placed into the activity monitors and total distance traveled over the first 30 min was measured.
Solvent-pretreated Control Rats.
Animals receiving the combination of JNJ-42153605 and scopolamine (n=433) almost always traveled a distance of less than 1500 cm (<1500 cm) (only 2.5% of the control rats traveled a distance of more than 1500 cm (>1500 cm)). On the other hand, animals challenged with scopolamine alone (n=215) always traveled a total distance of more than 1500 cm (>1500 cm) and almost always (in 95.8% of the rats) a distance of more than 4400 cm (>4400 cm). […] For reversal of the inhibitory effect of JNJ-42153605 on the scopolamine-induced hyperlocomotion, the following all-or-none criteria were adopted: (1) reversal: total distance>1500 cm.

Where two headings read alike, the source gives them in different places.

T1 sequence (Q14416 19-872): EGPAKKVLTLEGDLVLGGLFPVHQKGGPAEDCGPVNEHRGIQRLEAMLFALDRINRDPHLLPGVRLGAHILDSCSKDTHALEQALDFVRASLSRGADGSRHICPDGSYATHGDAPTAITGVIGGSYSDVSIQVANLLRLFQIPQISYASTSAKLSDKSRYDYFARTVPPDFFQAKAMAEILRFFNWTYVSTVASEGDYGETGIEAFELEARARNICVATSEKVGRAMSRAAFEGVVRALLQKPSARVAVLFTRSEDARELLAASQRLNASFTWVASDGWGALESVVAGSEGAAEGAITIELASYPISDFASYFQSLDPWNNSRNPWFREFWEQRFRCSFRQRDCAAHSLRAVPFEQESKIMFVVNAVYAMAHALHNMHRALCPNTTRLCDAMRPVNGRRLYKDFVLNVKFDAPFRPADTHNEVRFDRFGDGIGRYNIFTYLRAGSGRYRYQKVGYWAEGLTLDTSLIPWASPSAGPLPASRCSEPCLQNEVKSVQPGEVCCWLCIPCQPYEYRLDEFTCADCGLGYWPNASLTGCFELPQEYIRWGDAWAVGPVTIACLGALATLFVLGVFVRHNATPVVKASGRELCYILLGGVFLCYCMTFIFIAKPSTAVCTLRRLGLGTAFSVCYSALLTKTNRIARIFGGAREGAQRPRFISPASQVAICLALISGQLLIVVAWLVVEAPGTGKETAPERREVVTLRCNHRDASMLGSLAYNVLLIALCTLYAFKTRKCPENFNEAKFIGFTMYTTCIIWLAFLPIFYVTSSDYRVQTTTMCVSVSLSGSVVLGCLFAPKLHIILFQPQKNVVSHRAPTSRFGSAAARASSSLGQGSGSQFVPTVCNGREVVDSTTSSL

On to `Cc1ncc(-c2cnn3c2C(=O)N(c2ccc(C(F)(F)F)c(Cl)c2)C[C@@H]3C)[nH]1` [Compound 27], for which the Emax in experiment [1] (maximal % inhibition relative to the control glutamate response (EC80 glutamate), read-out: GTPγS-hmGluR2 anGT Emax) was 106%. In experiment [1] (membranes from CHO cells transfected with human mGlu2 receptor, glutamate 60 μM (~EC80), read-out: GTPγS-hmGluR2 anGT pIC50 (converted)), the IC50 was 3.47 nM. In addition, the ED50 in experiment [2] (criterion for reversal: total distance >1500 cm, read-out: ED50 SCOP JNJ-42153605) was more than 2.5 mg/kg; in experiment [2] (more sensitive criterion for reversal: total distance >1300 cm, read-out: ED50 SCOP JNJ-42153605, more sensitive criterion), 1.25 mg/kg.
